What was measured:
[1] = biological target: p38 MAPKα (Homo sapiens (Human), UniProt Q16539); assay: p38 MAPKα enzyme inhibition (FRET, Z-LYTE); assay type: biochemical
[2] = biological target: cSrc (Homo sapiens (Human), UniProt P12931); assay: c-Src enzyme inhibition (FRET, Z-LYTE); assay type: biochemical
Outline: (§1)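 Z-LYTE FRET kinase assay: enzyme (3000 or 2000 ng/mL stock, respectively) preincubated 2 h at RT with compound (4–0.004 μg/mL stocks), then FRET peptide plus ATP (800 μM stock for c-Src, 60 μM for Syk) added for 1 h. Protease development 1 h; phosphorylation from coumarin/fluorescein emission ratio.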

[3] = biological target: Syk (Homo sapiens (Human), UniProt P43405); assay: Syk enzyme inhibition (FRET, Z-LYTE); assay type: biochemical
Outline: as §1

[4] = biological target: GSK3α (Homo sapiens (Human), UniProt P49840); assay: GSK 3α enzyme inhibition (FRET, Z-LYTE); assay type: biochemical
Outline: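 GSK3α (500 ng/mL stock) was preincubated 2 hr at RT with compound (4 to 0.004 μg/mL stocks), then FRET peptide (8 μM stock) and ATP (40 μM stock) added for 1 hr. Protease development for 1 hr cleaved unphosphorylated peptide; coumarin/fluorescein emission ratio reported phosphorylation.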

[5] = tested on: LPS-induced TNFα release in d-U937 cells; assay: LPS-induced TNFα release in d-U937 cells; assay type: cell-based; settings: Homo sapiens, dU937, relative to 10 μg/mL BIRB796, read-out: LPS Induced Release of Cytokine in d-937 Cells TNFα REC50
Outline: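 Human monocytic U937 cells were differentiated to macrophage-type cells with PMA (100 ng/mL) for 48 to 72 hr, pre-treated with test compound for 2 hr, then stimulated 4 hr with E. coli O111:B4 LPS (0.1 μg/mL). Supernatant TNFα and IL-8 were measured by sandwich ELISA; REC50 came from concentration-response curves.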

[6] = tested on: LPS-induced IL-8 release in d-U937 cells; assay: LPS-induced IL-8 release in d-U937 cells; assay type: cell-based; settings: Homo sapiens, dU937, read-out: LPS Induced Release of Cytokine in d-937 Cells IL-8 IC50
Outline: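 PMA-differentiated (100 ng/mL, 48–72 hr) U937 cells pre-incubated with compound 2 hr, then stimulated with LPS (0.1 μg/mL, E. coli O111:B4) for 4 hr. Supernatant TNFα and IL-8 measured by sandwich ELISA; inhibition versus vehicle control, REC50 from concentration-response curve.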

[7] = tested on: Poly I:C-induced ICAM-1 expression in BEAS2B cells; assay: Poly I:C-induced ICAM-1 expression in BEAS2B cells; assay type: cell-based; settings: Homo sapiens, BEAS-2B, read-out: Poly IC induced ICAM1 in BEAS2B IC50
Outline: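 BEAS2B human bronchial epithelial cells pre-incubated with compound for 2 hr, then transfected with 1 μg/mL poly I:C plus Oligofectamine. At 18 hr, surface ICAM-1 measured by cell-based ELISA (HRP, OD450–655). Signal corrected for cell number by crystal violet OD595.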

[8] = tested on: d-U937 cells; assay: Cell viability: MTT assay; assay type: cell-based, human; settings: 1 μg/mL
Outline: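 Differentiated U937 cells were exposed to compound at 1 or 10 μg/mL either 4 h in 5% FCS RPMI1640 or 24 h in 10% FCS RPMI1640, then given MTT for 1 h, DMSO-solubilised and read at 550 nm. Percent viability loss versus 0.5% DMSO vehicle; apparent gains appear negative.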

Sequence of p38 MAPKα (Q16539 whole entry): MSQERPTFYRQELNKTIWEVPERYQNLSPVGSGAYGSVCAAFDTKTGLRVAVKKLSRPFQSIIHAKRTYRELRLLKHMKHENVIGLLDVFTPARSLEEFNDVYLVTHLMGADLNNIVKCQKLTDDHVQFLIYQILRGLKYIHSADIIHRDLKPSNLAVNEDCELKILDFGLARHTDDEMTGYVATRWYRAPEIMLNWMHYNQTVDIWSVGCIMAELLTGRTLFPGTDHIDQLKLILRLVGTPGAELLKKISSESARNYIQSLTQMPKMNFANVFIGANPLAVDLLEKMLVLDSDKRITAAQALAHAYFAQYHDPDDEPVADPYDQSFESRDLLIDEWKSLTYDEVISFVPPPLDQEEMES
Sequence of GSK3α (P49840 whole entry): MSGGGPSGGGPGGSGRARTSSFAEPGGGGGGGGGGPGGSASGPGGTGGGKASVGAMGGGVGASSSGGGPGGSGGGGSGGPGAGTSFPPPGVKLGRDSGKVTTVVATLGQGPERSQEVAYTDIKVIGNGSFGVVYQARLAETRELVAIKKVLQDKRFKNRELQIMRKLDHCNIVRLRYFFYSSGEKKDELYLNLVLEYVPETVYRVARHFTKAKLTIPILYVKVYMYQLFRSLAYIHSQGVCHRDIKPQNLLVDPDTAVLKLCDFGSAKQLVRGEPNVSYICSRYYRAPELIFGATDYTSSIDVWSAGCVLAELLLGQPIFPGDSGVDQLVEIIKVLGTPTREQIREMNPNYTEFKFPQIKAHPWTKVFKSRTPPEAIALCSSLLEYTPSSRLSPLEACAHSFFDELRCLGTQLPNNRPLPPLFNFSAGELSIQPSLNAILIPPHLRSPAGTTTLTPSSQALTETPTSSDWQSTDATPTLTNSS
Sequence of cSrc (P12931 whole entry, looked up): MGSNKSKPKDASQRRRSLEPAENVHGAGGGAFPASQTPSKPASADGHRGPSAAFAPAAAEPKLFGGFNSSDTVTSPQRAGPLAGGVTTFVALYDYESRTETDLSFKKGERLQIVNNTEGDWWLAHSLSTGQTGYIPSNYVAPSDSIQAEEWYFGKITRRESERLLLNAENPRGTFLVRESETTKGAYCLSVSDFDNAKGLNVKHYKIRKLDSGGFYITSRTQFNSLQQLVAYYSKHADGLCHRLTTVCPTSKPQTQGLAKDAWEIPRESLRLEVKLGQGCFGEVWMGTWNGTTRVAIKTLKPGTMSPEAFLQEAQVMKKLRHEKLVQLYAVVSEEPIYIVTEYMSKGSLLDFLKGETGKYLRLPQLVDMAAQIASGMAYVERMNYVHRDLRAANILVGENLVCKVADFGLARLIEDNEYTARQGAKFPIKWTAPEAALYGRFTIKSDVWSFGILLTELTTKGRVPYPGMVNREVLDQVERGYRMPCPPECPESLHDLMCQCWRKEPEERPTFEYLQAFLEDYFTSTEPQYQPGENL

SMILES | IC50 [1] | IC50 [2] | IC50 [3] | IC50 [4] | EC50 [5] | IC50 [6] | IC50 [7] | MTT Assay Cell viability at time point in d-U937 cells 4 h [8] | MTT Assay Cell viability at time point in d-U937 cells 24 h [8]
Cc1nc2cc(Nc3nccc(Oc4ccc(NC(=O)Nc5cc(C(C)(C)C)nn5-c5ccc(OCCN6CCOCC6)cc5)c5ccccc45)n3)ccc2[nH]1 [Example 75, 1-(3-(tert-butyl)-1-(4-(2-morpholinoethoxy)phenyl)-1H-pyrazol-5-yl)-3-(4-((2-((2-methyl-1H-benzo[d]imidazol-6-yl)amino)pyrimidin-4-yl)oxy)naphthalen-1-yl)urea] | 36 nM | < 1 nM | < 1 nM | 4950 nM | 14.2 nM | 43.9 nM | 16.3 nM | −ve (−ve and +ve indicate that the value is below and above respectively, the no significant effect threshold, defined as 30% inhibition at 1 μg/mL at the time point indicated.) | −ve (−ve and +ve indicate that the value is below and above respectively, the no significant effect threshold, defined as 30% inhibition at 1 μg/mL at the time point indicated.)
CC(C)(C)c1cc(NC(=O)Nc2ccc(Oc3ccnc(Nc4ccc5sncc5c4)n3)c3ccccc23)n(-c2ccc(OCCN3CCOCC3)cc2)n1 [Example 78, 1-(4-((2-(benzo[d]isothiazol-5-ylamino)pyrimidin-4-yl)oxy)naphthalen-1-yl)-3-(3-(tert-butyl)-1-(4-(2-morpholinoethoxy)phenyl)-1H-pyrazol-5-yl)urea] | 139 nM | 8 nM | 33 nM | 2420 nM | 4.7 nM | 7.4 nM | 7.9 nM | −ve (−ve and +ve indicate that the value is below and above respectively, the no significant effect threshold, defined as 30% inhibition at 1 μg/mL at the time point indicated.) | −ve (−ve and +ve indicate that the value is below and above respectively, the no significant effect threshold, defined as 30% inhibition at 1 μg/mL at the time point indicated.)
CC(C)(C)c1cc(NC(=O)Nc2ccc(Oc3ccnc(Nc4ccc5c(c4)OCO5)n3)c3ccccc23)n(-c2ccc(OCCN3CCOCC3)cc2)n1 [Example 65, 1-(4-((2-(benzo[d][1,3]dioxol-5-ylamino)pyrimidin-4-yl)oxy)naphthalen-1-yl)-3-(3-(tert-butyl)-1-(4-(2-morpholinoethoxy)phenyl)-1H-pyrazol-5-yl)urea] | 239 nM | 23 nM | 141 nM | 2840 nM | 5.3 nM | 20.9 nM | 6.7 nM | −ve (−ve and +ve indicate that the value is below and above respectively, the no significant effect threshold, defined as 30% inhibition at 1 μg/mL at the time point indicated.) | −ve (−ve and +ve indicate that the value is below and above respectively, the no significant effect threshold, defined as 30% inhibition at 1 μg/mL at the time point indicated.)
Cc1ccc(-n2nc(C(C)(C)C)cc2NC(=O)Nc2ccc(Oc3ccnc(Nc4ccc5c(cnn5CCN5CCOCC5)c4)n3)c3ccccc23)cc1 [Example 29, 1-(3-(tert-butyl)-1-(p-tolyl)-1H-pyrazol-5-yl)-3-(4-((2-((1-(2-morpholinoethyl)-1H-indazol-5-yl)amino)pyrimidin-4-yl)oxy)naphthalen-1-yl)urea] | 57 nM | 12 nM | 29 nM | 582 nM | 9.9 nM | 21.1 nM | 0.9 nM | −ve (−ve and +ve indicate that the value is below and above respectively, the no significant effect threshold, defined as 30% inhibition at 1 μg/mL at the time point indicated.) | −ve (−ve and +ve indicate that the value is below and above respectively, the no significant effect threshold, defined as 30% inhibition at 1 μg/mL at the time point indicated.)
COc1ccc(-n2nc(C(C)(C)C)cc2NC(=O)Nc2ccc(Oc3ccnc(Nc4ccc5c(cnn5C)c4)n3)c3ccccc23)cc1 [Example 41, 1-(3-(tert-butyl)-1-(4-methoxyphenyl)-1H-pyrazol-5-yl)-3-(4-((2-((1-methyl-1H-indazol-5-yl)amino)pyrimidin-4-yl)oxy)naphthalen-1-yl)urea] | 128 nM | 16 nM | 81 nM | > 15300 nM | 1.6 nM | 123 nM | 1.9 nM | +ve (−ve and +ve indicate that the value is below and above respectively, the no significant effect threshold, defined as 30% inhibition at 1 μg/mL at the time point indicated.) | −ve (−ve and +ve indicate that the value is below and above respectively, the no significant effect threshold, defined as 30% inhibition at 1 μg/mL at the time point indicated.)
CC(C)(C)c1cc(NC(=O)Nc2ccc(Oc3ccnc(Nc4ccc5c(cnn5CCN5CCOCC5)c4)n3)c3ccccc23)n(-c2ccc(OCCN3CCOCC3)cc2)n1 [Example 74, 1-(3-(tert-butyl)-1-(4-(2-morpholinoethoxy)phenyl)-1H-pyrazol-5-yl)-3-(4-((2-((1-(2-morpholinoethyl)-1H-indazol-5-yl)amino)pyrimidin-4-yl)oxy)naphthalen-1-yl)urea] | 27 nM | < 1 nM | 1 nM | 597 nM | 3.6 nM | 192 nM | 2.7 nM | −ve (−ve and +ve indicate that the value is below and above respectively, the no significant effect threshold, defined as 30% inhibition at 1 μg/mL at the time point indicated.) | −ve (−ve and +ve indicate that the value is below and above respectively, the no significant effect threshold, defined as 30% inhibition at 1 μg/mL at the time point indicated.)
CC(C)(C)c1cc(NC(=O)Nc2ccc(Oc3cc(Nc4ccc5[nH]ncc5c4)ncn3)c3ccccc23)n(-c2ccc(=O)n(CCO)c2)n1 [Example 14, 1-(4-((6-((1H-Indazol-5-yl)amino)pyrimidin-4-yl)oxy)naphthalen-1-yl)-3-(3-(tert-butyl)-1-(1-(2-hydroxyethyl)-6-oxo-1,6-dihydropyridin-3-yl)-1H-pyrazol-5-yl)urea] | 3 nM | 2 nM | 7 nM | 1090 nM | 7.5 nM | 18.4 nM | 52.4 nM | −ve (−ve and +ve indicate that the value is below and above respectively, the no significant effect threshold, defined as 30% inhibition at 1 μg/mL at the time point indicated.) | −ve (−ve and +ve indicate that the value is below and above respectively, the no significant effect threshold, defined as 30% inhibition at 1 μg/mL at the time point indicated.)
CC(C)c1cc(NC(=O)Nc2ccc(Oc3ccnc(Nc4ccc5[nH]ncc5c4)n3)c3ccccc23)n(-c2ccc(=O)n(CCO)c2)n1 [Example 85, 1-(4-((2-((1H-indazol-5-yl)amino)pyrimidin-4-yl)oxy)naphthalen-1-yl)-3-(1-(1-(2-hydroxyethyl)-6-oxo-1,6-dihydropyridin-3-yl)-3-isopropyl-1H-pyrazol-5-yl)urea] | 8 nM | < 2 nM | 15 nM | 2530 nM | 19.7 nM | 54.4 nM | 70.2 nM | −ve (−ve and +ve indicate that the value is below and above respectively, the no significant effect threshold, defined as 30% inhibition at 1 μg/mL at the time point indicated.) | −ve (−ve and +ve indicate that the value is below and above respectively, the no significant effect threshold, defined as 30% inhibition at 1 μg/mL at the time point indicated.)

— patent publication US9249125B2, “Pyrazole derivatives as p38 MAP inhibitors” (RESPIVERT LIMITED, priority 2012, dated 2016)
